Key:
crabgrass, large [1] = assay: Test A postemergence; type: in vivo, Digitaria sanguinalis
In short: (§1)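 Growth medium: loam soil blended with sand. Preemergence treatment used a directed soil spray right after planting; postemergence treatment targeted seedlings at one to two leaves (2–10 cm height). Response was judged by eye relative to untreated plants about 10 days later on a 0–100 control scale.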

oilseed rape = assay: Test C preemergence; type: in vivo, Brassica napus; settings: for Plant response rating (scale of 0 to 100), Oilseed Rape: Preemergence, 250 g ai/ha; for Oilseed Rape plant response rating / Plant response rating, Oilseed Rape: preemergence; for Plant response rating, Oilseed Rape: scale 0 to 100, 0 = no effect, 100 = complete control
In short: (§2)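 Pre- and postemergence greenhouse screen; vehicle was a non-phytotoxic solvent mix with surfactant. Preemergence: treatment applied right after sowing into loam and sand. Postemergence: treated at 1–4 leaves. Visual rating at 13–15 days, 100 = complete control.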

soybean = assay: Test C preemergence; type: in vivo, Glycine max; settings: for Plant response rating (scale of 0 to 100), Soybean: Preemergence, 250 g ai/ha; for Soybean plant response rating / Plant response rating, Soybean: preemergence; for Plant response rating, Soybean: scale 0 to 100, 0 = no effect, 100 = complete control
In short: as §2

foxtail, giant = assay: Test A postemergence; type: in vivo, Setaria faberii
In short: as §1

velvetleaf [2] = assay: Test A preemergence; type: in vivo, Abutilon theophrasti; settings: preemergence
In short: as §1

ryegrass, Italian = assay: Test C preemergence; type: in vivo, Lolium multiflorum; settings: for Plant response rating (scale of 0 to 100), Ryegrass, Italian: Preemergence, 250 g ai/ha; for Ryegrass, Italian plant response rating / Plant response rating, Ryegrass, Italian: preemergence; for Plant response rating, Ryegrass, Italian: scale 0 to 100, 0 = no effect, 100 = complete control
In short: as §2

nutsedge, yellow = assay: Test C preemergence; type: in vivo, Cyperus esculentus; settings: for Plant response rating (scale of 0 to 100), Nutsedge, Yellow: Preemergence, 250 g ai/ha; for Nutsedge, Yellow plant response rating / Plant response rating, Nutsedge, Yellow: preemergence; for Plant response rating, Nutsedge, Yellow: scale 0 to 100, 0 = no effect, 100 = complete control
In short: as §2

velvetleaf [3] = assay: Test A postemergence; type: in vivo, Abutilon theophrasti
In short: as §1

barnyardgrass = assay: Test B flood; type: in vivo, Echinochloa crus-galli; settings: 250 g ai/ha, visual rating on 0 to 100 scale (0 no effect, 100 complete control), 13 to 15 days
In short: (§3)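 Greenhouse assay lasting 13 to 15 days. Treatment was into water flooding pots 3 cm deep, at the 2-leaf stage, with that level sustained afterwards. Scores compare treated with control plants visually, 100 denoting complete control and 0 no effect; a dash marks no test result.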

sedge, umbrella = assay: Test B flood; type: in vivo, Cyperus difformis; settings: 250 g ai/ha, visual rating on 0 to 100 scale (0 no effect, 100 complete control), 13 to 15 days
In short: as §3

crabgrass, large [4] = assay: Test A preemergence; type: in vivo, Digitaria sanguinalis; settings: preemergence
In short: as §1

morningglory [5] = assay: Test A postemergence; type: in vivo, Ipomoea spp.
In short: as §1

morningglory [6] = assay: Test A preemergence; type: in vivo, Ipomoea spp.; settings: preemergence
In short: as §1

galium = assay: Test C preemergence; type: in vivo, Galium aparine; settings: for Plant response rating (scale of 0 to 100), Galium: Preemergence, 250 g ai/ha; for Galium plant response rating / Plant response rating, Galium: preemergence; for Plant response rating, Galium: scale 0 to 100, 0 = no effect, 100 = complete control
In short: as §2

wheat = assay: Test A preemergence; type: in vivo, Triticum aestivum; settings: preemergence
In short: as §1

[7] = Postemergence, 500 g ai/ha, visual rating after approx. 10 days, 0 to 100 scale (0 no effect, 100 complete control)
[8] = postemergence, 125 g ai/ha, about 10 days, visual rating on 0 to 100 scale (0 no effect, 100 complete control)
[9] = 31 g ai/ha, visual rating, scale 0 to 100 (0 no effect, 100 complete control), 13 to 15 days
[10] = 62 g ai/ha, scale 0 to 100 (0 no effect, 100 complete control), 13 to 15 days
[11] = 125 g ai/ha, scale 0 to 100, 0 is no effect, 100 is complete control
[12] = 125 g ai/ha, visual injury, 0 to 100 scale, approx. 10 days
[13] = 500 g ai/ha, visual injury after approx. 10 days, 0 to 100 scale (0 no effect, 100 complete control)
[14] = Postemergence, 500 g ai/ha, 0 to 100 scale (0 no effect, 100 complete control)

SMILES | Crabgrass, Large plant response rating (crabgrass, large [1]; [8]) | Plant response rating (scale of 0 to 100), Oilseed Rape (oilseed rape) | Oilseed Rape plant response rating (oilseed rape; [9]) | Oilseed Rape plant response rating (oilseed rape; [10]) | Plant response rating (scale of 0 to 100), Soybean (soybean) | Soybean plant response rating (soybean; [9]) | Soybean plant response rating (soybean; [10]) | Foxtail, Giant plant response rating (foxtail, giant; [8]) | Velvetleaf plant response rating (velvetleaf [2]; [12]) | Velvetleaf plant response rating (velvetleaf [2]; [13]) | Plant response rating (scale of 0 to 100), Ryegrass, Italian (ryegrass, Italian) | Ryegrass, Italian plant response rating (ryegrass, Italian; [9]) | Ryegrass, Italian plant response rating (ryegrass, Italian; [10]) | Plant response rating (scale of 0 to 100), Nutsedge, Yellow (nutsedge, yellow) | Nutsedge, Yellow plant response rating (nutsedge, yellow; [9]) | Nutsedge, Yellow plant response rating (nutsedge, yellow; [10]) | Velvetleaf plant response rating (velvetleaf [3]; [8]) | Plant response rating, Barnyardgrass (barnyardgrass) | Plant response rating, Sedge, Umbrella (sedge, umbrella) | Crabgrass, Large plant response rating (crabgrass, large [4]; [12]) | further results
CCCc1cc(C(=O)NCC(F)(F)F)nn1Cc1ccnc(C(F)(F)F)c1 [Compound 105] | 100 | 100 | 95 | 95 | 95 | 70 | 70 | 100 | 100 | 100 | 95 | 85 | 95 | 95 | 50 | 85 | 100 | 90 | 95 | 100 | Crabgrass, Large plant response rating (crabgrass, large [1]; [7]): 100; Oilseed Rape plant response rating (oilseed rape; [11]): 95; Soybean plant response rating (soybean; [11]): 95; Foxtail, Giant plant response rating (foxtail, giant; [7]): 100; Ryegrass, Italian plant response rating (ryegrass, Italian; [11]): 95; Nutsedge, Yellow plant response rating (nutsedge, yellow; [11]): 95; Velvetleaf plant response rating (velvetleaf [3]; [7]): 100; Crabgrass, Large plant response rating (crabgrass, large [4]; [13]): 100; Morningglory plant response rating (morningglory [5]; [7]): 100; Morningglory plant response rating (morningglory [5]; [8]): 100; Morningglory plant response rating (morningglory [6]; [12]): 100; Morningglory plant response rating (morningglory [6]; [13]): 100; Plant response rating (scale of 0 to 100), Galium (galium): 100; Galium plant response rating (galium; [9]): 100; Galium plant response rating (galium; [10]): 100; Galium plant response rating (galium; [11]): 100; Wheat plant response rating (wheat; [12]): 60; Wheat plant response rating (wheat; [13]): 100
CCCc1cc(C(=O)NCC)nn1Cc1cc(C(F)(F)F)nn1C [Compound 129] | 80 | 100 | 95 | 95 | 98 | 40 | 55 | 80 | 100 | 100 | 95 | 5 | 90 | 75 | 5 | 25 | 90 | 40 | 95 | 100 | Crabgrass, Large plant response rating (crabgrass, large [1]; [14]): 90; Plant response rating, Oilseed Rape (oilseed rape; 125 g ai/ha, 13 to 15 days): 100; Plant response rating, Soybean (soybean; 125 g ai/ha, 13 to 15 days): 98; Foxtail, Giant plant response rating (foxtail, giant; [14]): 90; Plant response rating, Ryegrass, Italian (ryegrass, Italian; 125 g ai/ha, 13 to 15 days): 95; Plant response rating, Nutsedge, Yellow (nutsedge, yellow; 125 g ai/ha, 13 to 15 days): 60; Velvetleaf plant response rating (velvetleaf [3]; [14]): 100; Crabgrass, Large plant response rating (crabgrass, large [4]; [13]): 100; Morningglory plant response rating (morningglory [5]; [14]): 100; Morningglory plant response rating (morningglory [5]; [8]): 90; Morningglory plant response rating (morningglory [6]; [12]): 100; Morningglory plant response rating (morningglory [6]; [13]): 100; Plant response rating (scale of 0 to 100), Galium (galium): 100; Galium plant response rating (galium; [9]): 100; Galium plant response rating (galium; [10]): 100; Plant response rating, Galium (galium; 125 g ai/ha, 13 to 15 days): 95; Wheat plant response rating (wheat; [12]): 50; Wheat plant response rating (wheat; [13]): 100
CCNC(=O)c1cc(CC)n(Cc2ccnc(OC(F)F)c2)n1 [Compound 130] | 70 | 100 | 75 | 98 | 98 | 10 | 55 | 60 | 70 | 100 | 98 | 5 | 25 | 75 | 25 | 65 | 80 | 40 | 90 | 100 | Crabgrass, Large plant response rating (crabgrass, large [1]; [14]): 90; Plant response rating, Oilseed Rape (oilseed rape; 125 g ai/ha, 13 to 15 days): 98; Plant response rating, Soybean (soybean; 125 g ai/ha, 13 to 15 days): 90; Foxtail, Giant plant response rating (foxtail, giant; [14]): 90; Plant response rating, Ryegrass, Italian (ryegrass, Italian; 125 g ai/ha, 13 to 15 days): 65; Plant response rating, Nutsedge, Yellow (nutsedge, yellow; 125 g ai/ha, 13 to 15 days): 75; Velvetleaf plant response rating (velvetleaf [3]; [14]): 100; Crabgrass, Large plant response rating (crabgrass, large [4]; [13]): 100; Morningglory plant response rating (morningglory [5]; [14]): 100; Morningglory plant response rating (morningglory [5]; [8]): 90; Morningglory plant response rating (morningglory [6]; [12]): 100; Morningglory plant response rating (morningglory [6]; [13]): 100; Plant response rating (scale of 0 to 100), Galium (galium): 100; Galium plant response rating (galium; [9]): 75; Galium plant response rating (galium; [10]): 85; Plant response rating, Galium (galium; 125 g ai/ha, 13 to 15 days): 98; Wheat plant response rating (wheat; [12]): 10; Wheat plant response rating (wheat; [13]): 90
CCCNC(=O)c1cc(CC)n(Cc2ccnc(OC(F)F)c2)n1 [Compound 132] | 90 | 100 | 75 | 98 | 95 | 35 | 75 | 80 | 100 | 100 | 98 | 15 | 85 | 70 | 35 | 55 | 100 | 60 | 90 | 100 | Crabgrass, Large plant response rating (crabgrass, large [1]; [14]): 90; Plant response rating, Oilseed Rape (oilseed rape; 125 g ai/ha, 13 to 15 days): 100; Plant response rating, Soybean (soybean; 125 g ai/ha, 13 to 15 days): 90; Foxtail, Giant plant response rating (foxtail, giant; [14]): 90; Plant response rating, Ryegrass, Italian (ryegrass, Italian; 125 g ai/ha, 13 to 15 days): 98; Plant response rating, Nutsedge, Yellow (nutsedge, yellow; 125 g ai/ha, 13 to 15 days): 80; Velvetleaf plant response rating (velvetleaf [3]; [14]): 100; Crabgrass, Large plant response rating (crabgrass, large [4]; [13]): 100; Morningglory plant response rating (morningglory [5]; [14]): 100; Morningglory plant response rating (morningglory [5]; [8]): 90; Morningglory plant response rating (morningglory [6]; [12]): 100; Morningglory plant response rating (morningglory [6]; [13]): 100; Plant response rating (scale of 0 to 100), Galium (galium): 100; Galium plant response rating (galium; [9]): 98; Galium plant response rating (galium; [10]): 100; Plant response rating, Galium (galium; 125 g ai/ha, 13 to 15 days): 100; Wheat plant response rating (wheat; [12]): 80; Wheat plant response rating (wheat; [13]): 100
